The values that follow come from US10722501B2 (BAYER AKTIENGESELLSCHAFT, priority 2016, dated 2020).

Each structure is given as a SMILES string.

The assay deals with T1, recombinant full-length human prolyl endopeptidase (PREP) (Homo sapiens, UniProt P48147).
T1 construct: To recombinant full-length human prolyl endopeptidase (PREP, R&D-Systems, 4308-SE); purchased R&D-Systems 4308-SE
T1 sequence (P48147 1-710): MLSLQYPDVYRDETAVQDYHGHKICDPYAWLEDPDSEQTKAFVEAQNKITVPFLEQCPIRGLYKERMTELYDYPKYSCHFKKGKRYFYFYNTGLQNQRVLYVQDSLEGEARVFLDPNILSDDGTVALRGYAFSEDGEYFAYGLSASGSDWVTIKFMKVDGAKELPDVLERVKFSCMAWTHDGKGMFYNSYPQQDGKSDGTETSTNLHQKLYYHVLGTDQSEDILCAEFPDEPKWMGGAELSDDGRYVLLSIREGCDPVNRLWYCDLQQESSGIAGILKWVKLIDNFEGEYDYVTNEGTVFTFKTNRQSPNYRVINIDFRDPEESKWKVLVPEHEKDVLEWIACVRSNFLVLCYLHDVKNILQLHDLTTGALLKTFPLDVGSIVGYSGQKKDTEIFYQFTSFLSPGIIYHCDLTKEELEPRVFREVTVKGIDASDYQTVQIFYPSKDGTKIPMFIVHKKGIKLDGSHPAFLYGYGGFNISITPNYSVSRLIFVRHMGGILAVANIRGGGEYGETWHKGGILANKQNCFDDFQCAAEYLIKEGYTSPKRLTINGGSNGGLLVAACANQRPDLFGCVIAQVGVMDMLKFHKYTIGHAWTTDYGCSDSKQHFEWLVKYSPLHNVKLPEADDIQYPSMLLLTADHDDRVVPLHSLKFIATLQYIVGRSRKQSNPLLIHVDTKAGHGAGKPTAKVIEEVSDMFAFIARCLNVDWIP
Briefly: Biochemical human prolyl endopeptidase (PREP) assay with fluorescently labelled substrate. Conditions: substrate Z-Gly-Pro-AMC 50 μM, 32° C., 60 min; some as mean values from multiple independent determinations. The procedure, abridged: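 Initial rates of fluorescence increase from 50 μM Z-Gly-Pro-AMC cleavage (ex 360/em 465 nm, 60 min, 32° C) give percent PREP activity versus no-compound control, and IC50 is interpolated. Enzyme used at 0.4 nM (final, example) in Tris pH 7.5 with EDTA, GSH, BSA and Brij-35; compounds span 1 nM to 30 μM.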
In general, IC50 refers to the concentration at which inhibition is half-maximal. As to `Cc1ccc(Cn2nc3n(c2=O)[C@H](C(=O)N2CCSC2)CCC3)cc1` [Example 108, (5S)-2-(4-Methylbenzyl)-5-(1,3-thiazolidin-3-ylcarbonyl)-5,6,7,8-tetrahydro[1,2,4]triazolo[4,3-a]pyridin-3(2H)-one], the IC50 is 0.15 nM. The result for `O=C(C1CCc2nn(Cc3ccc(C(F)(F)F)nc3)c(=O)n21)N1CC[C@H](F)C1` (mixture of isomers) [Example 164, (5RS)-5-{[(3S)-3-Fluoropyrrolidin-1-yl]carbonyl}-2-{[6-(trifluoromethyl)pyridin-3-yl]methyl}-2,5,6,7-tetrahydro-3H-pyrrolo[2,1-c][1,2,4]triazol-3-one] reads 3.7 nM; that for `CC1Cc2nn(Cc3ccc(F)c(Cl)c3)c(=O)n2C(C(=O)N2CCC(F)(F)C2)C1` (racemic) [Example 331, (5RS,7RS)-2-(3-Chloro-4-fluorobenzyl)-5-[(3,3-difluoropyrrolidin-1-yl)carbonyl]-7-methyl-5,6,7,8-tetrahydro[1,2,4]triazolo[4,3-a]pyridin-3(2H)-one], 0.68 nM. The result for `O=C([C@@H]1CCCc2nn(Cc3cccc(Cl)n3)c(=O)n21)N1CCC(F)(F)C1` [Example 383, (5S)-2-[(6-Chloropyridin-2-yl)methyl]-5-[(3,3-difluoropyrrolidin-1-yl)carbonyl]-5,6,7,8-tetrahydro[1,2,4]triazolo[4,3-a]pyridin-3(2H)-one] reads 8.55 nM; that for `COc1ncc(Cn2nc3n(c2=O)[C@H](C(=O)N2CCC(F)(F)C2)CCC3)cc1Cl` [Example 443, (5S)-2-[(5-Chloro-6-methoxypyridin-3-yl)methyl]-5-[(3,3-difluoropyrrolidin-1-yl)carbonyl]-5,6,7,8-tetrahydro[1,2,4]triazolo[4,3-a]pyridin-3(2H)-one], 0.61 nM; that for `O=C([C@@H]1CCCc2nn(Cc3ccnc(C(F)(F)F)c3F)c(=O)n21)N1CC2CC1C2` [Example 187, (5S)-5-(2-Azabicyclo[2.1.1]hex-2-ylcarbonyl)-2-{[3-fluoro-2-(trifluoromethyl)pyridin-4-yl]methyl}-5,6,7,8-tetrahydro[1,2,4]triazolo[4,3-a]pyridin-3(2H)-one], 102 nM. For `O=C([C@@H]1CCCc2nn(Cc3ccc(F)c(C(F)(F)F)c3)c(=O)n21)N1CC(O)C1` [Example 449, (5S)-2-[4-Fluoro-3-(trifluoromethyl)benzyl]-5-[(3-hydroxyazetidin-1-yl)carbonyl]-5,6,7,8-tetrahydro[1,2,4]triazolo[4,3-a]pyridin-3(2H)-one], the IC50 amounted to 5.55 nM. The same measure for `O=C([C@@H]1CCCc2nn(Cc3cc(C(F)(F)F)nc4ccccc34)c(=O)n21)N1CC(F)C1` [Example 494, (5S)-5-[(3-Fluoroazetidin-1-yl)carbonyl]-2-{[2-(trifluoromethyl)quinolin-4-yl]methyl}-5,6,7,8-tetrahydro[1,2,4]triazolo[4,3-a]pyridin-3(2H)-one]: 0.91 nM; for `O=C([C@@H]1CCCc2nn(Cc3ccc(Cl)nc3)c(=O)n21)N1C[C@@H](F)[C@@H](F)C1` [Example 424, (5S)-2-[(6-Chloropyridin-3-yl)methyl]-5-{[(3R,4S)-3,4-difluoropyrrolidin-1-yl]carbonyl}-5,6,7,8-tetrahydro[1,2,4]triazolo[4,3-a]pyridin-3(2H)-one]: 0.38 nM. The result for `O=C([C@@H]1CCCc2nn(Cc3csc(C(F)(F)F)n3)c(=O)n21)N1CC[C@H](F)C1` [Example 365, (5S)-5-{[(3S)-3-Fluoropyrrolidin-1-yl]carbonyl}-2-{[2-(trifluoromethyl)-1,3-thiazol-4-yl]methyl}-5,6,7,8-tetrahydro[1,2,4]triazolo[4,3-a]pyridin-3(2H)-one] reads 2.3 nM; that for `O=C(C1C(C(F)(F)F)CCc2nn(Cc3ccnc(C(F)(F)F)c3F)c(=O)n21)N1CC[C@H](F)C1` (mixture of isomers) [Example 280, (5RS,6RS)-5-{[(3S)-3-Fluoropyrrolidin-1-yl]carbonyl}-2-{[3-fluoro-2-(trifluoromethyl)pyridin-4-yl]methyl}-6-(trifluoromethyl)-5,6,7,8-tetrahydro[1,2,4]triazolo[4,3-a]pyridin-3(2H)-one], 3.8 nM; that for `O=C([C@@H]1CCC(F)(F)c2nn(Cc3ncc(C(F)(F)F)cc3Cl)c(=O)n21)N1CC[C@H](F)C1` [Example 589, (5S)-2-{[3-Chloro-5-(trifluoromethyl)pyridin-2-yl]methyl}-8,8-difluoro-5-{[(3S)-3-fluoropyrrolidin-1-yl]carbonyl}-5,6,7,8-tetrahydro[1,2,4]triazolo[4,3-a]pyridin-3(2H)-one], 0.35 nM. The result for `O=C([C@@H]1CCCc2nn(Cc3cccc(Cl)n3)c(=O)n21)N1CC[C@H](F)C1` [Example 386, (5S)-2-[(6-Chloropyridin-2-yl)methyl]-5-{[(3S)-3-fluoropyrrolidin-1-yl]carbonyl}-5,6,7,8-tetrahydro[1,2,4]triazolo[4,3-a]pyridin-3(2H)-one] reads 0.94 nM; that for `O=C(C1CCCc2nn(Cc3cc(F)c(F)cc3F)c(=O)n21)N1CCC(F)(F)C1` (racemic) [Example 91, (5RS)-5-[(3,3-Difluoropyrrolidin-1-yl)carbonyl]-2-(2,4,5-trifluorobenzyl)-5,6,7,8-tetrahydro[1,2,4]triazolo[4,3-a]pyridin-3(2H)-one], 2.3 nM. As to `O=C(C1CCCc2nn(Cc3cccc(C(F)(F)F)c3)c(=O)n21)N1CCC(F)(F)C1` (racemic) [Example 47, (5RS)-5-[(3,3-Difluoropyrrolidin-1-yl)carbonyl]-2-[3-(trifluoromethyl)benzyl]-5,6,7,8-tetrahydro[1,2,4]triazolo[4,3-a]pyridin-3(2H)-one], the IC50 worked out at 1.6 nM. Take `O=C(C1CCCc2nn(Cc3ccc(Cl)cn3)c(=O)n21)N1CCCC1` (racemic) [Example 33, (5RS)-2-[(5-Chloropyridin-2-yl)methyl]-5-(pyrrolidin-1-ylcarbonyl)-5,6,7,8-tetrahydro[1,2,4]triazolo[4,3-a]pyridin-3(2H)-one]: the IC50 is 7.7 nM. Regarding `Cc1ccc(C(C)n2nc3n(c2=O)[C@H](C(=O)N2CCCC2)CCC3)cc1` (mixture of isomers) [Example 502, (5S)-2-[(1 RS)-1-(4-Methylphenyl)ethyl]-5-(pyrrolidin-1-ylcarbonyl)-5,6,7,8-tetrahydro[1,2,4]triazolo[4,3-a]pyridin-3(2H)-one], the half-maximal inhibitory concentration (IC50) came out at 4.1 nM. For `O=C([C@@H]1CCCc2nn(Cc3ccc(Cl)c(F)c3)c(=O)n21)N1CC(F)(F)C1` [Example 465, (5S)-2-(4-Chloro-3-fluorobenzyl)-5-[(3,3-difluoroazetidin-1-yl)carbonyl]-5,6,7,8-tetrahydro[1,2,4]triazolo[4,3-a]pyridin-3(2H)-one], the IC50 is 2.1 nM.

For the molecule `Cn1nc(Cn2nc3n(c2=O)[C@H](C(=O)N2CC(F)(F)C2)CCC3)c2cccnc21` [Example 415, (5S)-5-[(3,3-Difluoroazetidin-1-yl)carbonyl]-2-[(1-methyl-1H-pyrazolo[3,4-b]pyridin-3-yl)methyl]-5,6,7,8-tetrahydro[1,2,4]triazolo[4,3-a]pyridin-3(2H)-one], the half-maximal inhibitory concentration (IC50) stood at 5.4 nM. The same measure for `Cc1ccc(Cn2nc3n(c2=O)C(C(=O)N2CCC(=O)C2)CCC3)cc1` (racemic) [Example 118, (5RS)-2-(4-Methylbenzyl)-5-[(3-oxopyrrolidin-1-yl)carbonyl]-5,6,7,8-tetrahydro[1,2,4]triazolo[4,3-a]pyridin-3(2H)-one]: 5.6 nM. Take `O=C(C1CCCc2nn(Cc3ccc(Cl)nc3)c(=O)n21)N1CC[C@H](F)C1` (mixture of isomers) [Example 561, (5RS)-2-[(6-Chlorpyridin-3-yl)methyl]-5-{[(3S)-3-fluorpyrrolidin-1-yl]carbonyl}-5,6,7,8-tetrahydro[1,2,4]triazolo[4,3-a]pyridin-3(2H)-on]: the IC50 is 0.37 nM. The result for `O=C([C@@H]1CCCc2nn(Cc3cc(C(F)(F)F)c(Cl)cn3)c(=O)n21)N1C[C@@H](F)[C@@H](F)C1` [Example 372, (5S)-2-{[5-Chloro-4-(trifluoromethyl)pyridin-2-yl]methyl}-5-{[(3R,4S)-3,4-difluoropyrrolidin-1-yl]carbonyl}-5,6,7,8-tetrahydro[1,2,4]triazolo[4,3-a]pyridin-3(2H)-one] reads 1.3 nM; that for `O=C([C@@H]1CCCc2nn(CCc3ncc(C(F)(F)F)cc3Cl)c(=O)n21)N1CC(F)C1` [Example 518, (5S)-2-{[3-Chloro-5-(trifluoromethyl)pyridin-2-yl]ethyl}-5-[(3-fluoroazetidin-1-yl)carbonyl]-5,6,7,8-tetrahydro[1,2,4]triazolo[4,3-a]pyridin-3(2H)-one], 15 nM.
